A short description of data set [1]: Kinetic solubility of the compound at pH 1.2. The data set is classed as physicochemical. Conditions: buffer, read-out: Kinetic_solubility.
A short description of data set [2]: Kinetic solubility of the compound at pH 6.8. Conditions: buffer, read-out: Kinetic_solubility. The data set is classed as physicochemical.
Data set [3] addresses T1, Sodium channel protein type 9 subunit alpha (Homo sapiens, UniProt Q15858). The data set is described as follows: Inhibition of Nav1.7 (unknown origin) expressed in CHO cells after 45 mins by FLIPR assay. The format is cell-based.
For data set [4], the target named is T1, Sodium channel protein type 9 subunit alpha. Briefly: Inhibition of Nav1.7 (unknown origin) by electrophysiological assay.
Data set [5] has as its target hERG (KCNH2) (Homo sapiens, UniProt Q12809). The data set is described as follows: Inhibition of human ERG at 1 uM.
Data set [6] has as its system MDR1. Briefly: Apparent permeability from apical to basolateral side in MDCK cells expressing MDR1. Conditions: dog. The data set is classed as ADME, cell-based, Canis lupus familiaris.
The test system of data set [7] is MDR1. Briefly: Apparent permeability from basolateral to apical side in MDCK cells expressing MDR1. The data set is classed as ADME, cell-based, Canis lupus familiaris. The settings on record: dog.
For data set [8], the system named is MDR1. The data set is described as follows: Efflux ratio of permeability from basolateral to apical side over apical to basolateral side in MDCK cells expressing MDR1. The format is ADME, cell-based, Canis lupus familiaris. Conditions: dog.
Data set [9] is described as follows: Tmax in Sprague-Dawley rat at 3 mg/kg, po. The settings on record: in vivo. The data set is classed as ADME, organism-based.
A short description of data set [10]: Cmax in Sprague-Dawley rat at 3 mg/kg, po. The data set is classed as ADME, organism-based. Also on record: dose 3 mg/kg, route oral. The settings on record: in vivo.
Data set [11] is described as follows: AUC in Sprague-Dawley rat at 3 mg/kg, po. The format is ADME, organism-based. The settings on record: in vivo.

Results on 8 compounds are retold here after ChEMBL document CHEMBL3576839, “N-Aryl azacycles as novel sodium channel blockers” (Bioorg Med Chem Lett, 2015).

≈ marks a conversion by molar mass, not a printed value.

T1 sequence (Q15858 whole entry): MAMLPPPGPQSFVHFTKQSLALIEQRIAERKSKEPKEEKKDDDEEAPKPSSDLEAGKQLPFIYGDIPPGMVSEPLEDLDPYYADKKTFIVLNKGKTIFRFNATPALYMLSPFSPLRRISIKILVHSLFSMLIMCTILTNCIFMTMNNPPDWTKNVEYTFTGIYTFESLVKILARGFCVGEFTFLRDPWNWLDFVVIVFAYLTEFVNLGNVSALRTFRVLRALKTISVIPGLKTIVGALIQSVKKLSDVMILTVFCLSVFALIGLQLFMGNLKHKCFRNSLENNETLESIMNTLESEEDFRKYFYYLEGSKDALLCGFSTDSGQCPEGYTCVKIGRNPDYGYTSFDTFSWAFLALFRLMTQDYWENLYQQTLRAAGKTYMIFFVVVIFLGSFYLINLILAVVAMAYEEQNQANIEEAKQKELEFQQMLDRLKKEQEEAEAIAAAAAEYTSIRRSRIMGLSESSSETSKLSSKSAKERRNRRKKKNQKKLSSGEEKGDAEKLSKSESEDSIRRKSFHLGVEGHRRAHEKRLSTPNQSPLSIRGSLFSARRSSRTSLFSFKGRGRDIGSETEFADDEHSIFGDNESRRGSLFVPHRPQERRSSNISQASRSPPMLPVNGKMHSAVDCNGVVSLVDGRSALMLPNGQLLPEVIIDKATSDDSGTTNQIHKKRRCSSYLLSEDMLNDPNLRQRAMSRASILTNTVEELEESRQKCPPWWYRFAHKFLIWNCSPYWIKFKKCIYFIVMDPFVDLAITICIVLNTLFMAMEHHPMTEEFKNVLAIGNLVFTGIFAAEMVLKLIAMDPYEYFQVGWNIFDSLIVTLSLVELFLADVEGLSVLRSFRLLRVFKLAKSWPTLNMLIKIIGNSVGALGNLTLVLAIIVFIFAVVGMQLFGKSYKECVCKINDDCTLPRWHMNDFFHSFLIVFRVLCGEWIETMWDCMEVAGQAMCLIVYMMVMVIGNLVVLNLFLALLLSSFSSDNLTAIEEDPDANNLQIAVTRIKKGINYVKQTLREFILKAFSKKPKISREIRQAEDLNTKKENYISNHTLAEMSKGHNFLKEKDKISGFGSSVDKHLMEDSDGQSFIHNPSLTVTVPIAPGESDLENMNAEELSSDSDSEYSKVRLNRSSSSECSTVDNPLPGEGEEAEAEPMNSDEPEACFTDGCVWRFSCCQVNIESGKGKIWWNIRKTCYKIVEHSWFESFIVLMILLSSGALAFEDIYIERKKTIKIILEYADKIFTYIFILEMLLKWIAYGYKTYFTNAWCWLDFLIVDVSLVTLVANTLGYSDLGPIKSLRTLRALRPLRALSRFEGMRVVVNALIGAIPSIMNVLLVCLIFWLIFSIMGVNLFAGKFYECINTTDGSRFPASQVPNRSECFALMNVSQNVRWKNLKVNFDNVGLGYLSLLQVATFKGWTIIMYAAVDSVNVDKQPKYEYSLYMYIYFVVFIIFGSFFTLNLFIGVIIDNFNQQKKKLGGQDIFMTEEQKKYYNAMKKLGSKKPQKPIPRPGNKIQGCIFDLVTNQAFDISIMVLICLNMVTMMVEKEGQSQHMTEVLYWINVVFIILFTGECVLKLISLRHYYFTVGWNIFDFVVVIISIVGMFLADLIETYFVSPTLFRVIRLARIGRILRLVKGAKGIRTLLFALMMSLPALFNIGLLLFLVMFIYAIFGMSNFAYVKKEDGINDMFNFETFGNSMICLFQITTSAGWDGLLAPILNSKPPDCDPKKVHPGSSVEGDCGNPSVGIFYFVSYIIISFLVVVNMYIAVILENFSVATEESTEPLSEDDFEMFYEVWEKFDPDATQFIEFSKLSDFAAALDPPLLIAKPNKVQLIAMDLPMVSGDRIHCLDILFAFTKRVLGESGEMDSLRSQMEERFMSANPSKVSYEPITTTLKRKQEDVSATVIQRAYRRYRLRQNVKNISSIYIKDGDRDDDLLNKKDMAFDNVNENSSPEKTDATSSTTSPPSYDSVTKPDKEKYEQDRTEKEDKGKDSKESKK
Chain of hERG (KCNH2) (Q12809 whole entry): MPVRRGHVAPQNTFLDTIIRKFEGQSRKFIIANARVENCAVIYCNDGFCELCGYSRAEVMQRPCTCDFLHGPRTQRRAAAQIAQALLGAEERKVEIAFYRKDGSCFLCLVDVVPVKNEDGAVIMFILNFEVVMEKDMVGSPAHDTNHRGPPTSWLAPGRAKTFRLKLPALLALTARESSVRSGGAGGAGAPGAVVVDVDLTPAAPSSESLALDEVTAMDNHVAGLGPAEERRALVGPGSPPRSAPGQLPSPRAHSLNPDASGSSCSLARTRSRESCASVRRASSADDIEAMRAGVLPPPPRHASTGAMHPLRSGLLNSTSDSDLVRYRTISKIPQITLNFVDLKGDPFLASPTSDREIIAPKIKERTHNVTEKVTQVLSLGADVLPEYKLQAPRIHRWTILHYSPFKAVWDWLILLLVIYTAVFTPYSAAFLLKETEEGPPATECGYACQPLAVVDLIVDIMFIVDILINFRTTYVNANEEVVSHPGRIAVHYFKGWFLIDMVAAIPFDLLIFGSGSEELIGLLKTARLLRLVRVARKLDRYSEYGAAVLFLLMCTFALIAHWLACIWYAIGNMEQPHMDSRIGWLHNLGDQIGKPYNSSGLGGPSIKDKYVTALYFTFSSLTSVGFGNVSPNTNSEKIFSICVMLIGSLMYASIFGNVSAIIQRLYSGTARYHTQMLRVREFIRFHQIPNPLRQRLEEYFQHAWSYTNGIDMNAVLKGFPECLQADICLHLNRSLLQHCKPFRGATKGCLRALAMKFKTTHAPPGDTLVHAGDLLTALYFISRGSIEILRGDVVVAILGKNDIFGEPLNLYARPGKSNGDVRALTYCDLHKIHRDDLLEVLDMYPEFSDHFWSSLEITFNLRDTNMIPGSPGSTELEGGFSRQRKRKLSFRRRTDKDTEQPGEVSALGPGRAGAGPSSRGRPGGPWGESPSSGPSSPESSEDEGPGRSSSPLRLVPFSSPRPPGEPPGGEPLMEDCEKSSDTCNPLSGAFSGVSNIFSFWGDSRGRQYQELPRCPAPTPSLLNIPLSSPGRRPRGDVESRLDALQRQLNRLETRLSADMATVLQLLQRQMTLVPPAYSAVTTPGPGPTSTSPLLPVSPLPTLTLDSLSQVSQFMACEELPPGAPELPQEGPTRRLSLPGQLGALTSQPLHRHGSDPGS

Take `NC(=O)c1cccc(-c2ccc3c(c2)CCCCN3c2ccc(C(F)(F)F)cc2)n1`: the solubility kinetic was 0.03 µM (≈ 0.0123 µg/mL) in data set [1] and 0.02 µM (≈ 0.00823 µg/mL) in data set [2].

`NC(=O)c1cccc(-c2ccc3c(c2)OCCCN3c2ccc(C(F)(F)F)cc2)n1`: the solubility kinetic in data set [1] and in [2] was 0.08 µM (≈ 0.0331 µg/mL) each time.

In the case of `NC(=O)c1cccc(-c2ccc3c(c2)CNCCN3c2ccc(C(F)(F)F)cc2)n1`, the solubility kinetic came out at 18 µM (≈ 7.42 µg/mL) in data set [1] and 0.59 µM (≈ 0.243 µg/mL) in [2].

As a reminder, the IC50 is the concentration that inhibits the measured activity by half. `CC(=O)N1CCN(c2ccc(C(F)(F)F)cc2)c2ccc(-c3cccc(C(N)=O)n3)cc2C1`: in data set [3], the IC50 turned out to be 0.38 µM.

Usually Ki stands for the dissociation constant of the complex between target and ligand, obtained from inhibition or displacement. Lower therefore signals a stronger hold on the target. In data set [4], `CNC(=O)CN1CCN(c2ccc(C(F)(F)F)cc2)c2ccc(-c3cccc([C@H](O)CO)n3)cc2C1` returned a Ki of 0.44 µM.

The term inhibition denotes the drop in the measured response relative to a control, in per cent. Read a high inhibition as strong suppression. As a reminder, the Papp A→B is how fast a substance crosses the layer from the apical side. By Papp B→A is commonly meant how fast a substance crosses the layer from the basolateral side. As a reminder, the efflux ratio is the permeability from basolateral to apical divided by that in the opposite direction, in the common usage. What is called Tmax is the time at which the peak concentration occurs. As usually defined, the Cmax is the peak of the concentration-time curve. The term AUC denotes the area under the concentration-time curve, a measure of exposure. Higher therefore signals high exposure. Consider `CC(=O)N1CCN(c2ccc(C(F)(F)F)cc2)c2ccc(-c3cccc([C@H](O)CO)n3)cc2C1`, for which the solubility kinetic stood at 80 µM (≈ 37.7 µg/mL) in data set [1] and 39 µM (≈ 18.4 µg/mL) in [2]. In data set [5], this compound had an inhibition at 1 µM of 13.9%. In addition, in [6], the Papp A→B came out at 0.9 ×10⁻⁶ cm/s. For the same compound, in [7], the Papp B→A is 28.3 ×10⁻⁶ cm/s. In addition, in data set [8], the efflux ratio came to 31. In addition, in [9], the Tmax worked out at 2.5 h. The Cmax in data set [10] came to 94 ng/mL. In [11], this compound yielded an AUC of 562 ng·h/mL.

The compound `CS(=O)(=O)N1CCN(c2ccc(C(F)(F)F)cc2)c2ccc(-c3cccc([C@H](O)CO)n3)cc2C1` registered a Ki in data set [4] of 0.23 µM.

For `NC(=O)N1CCN(c2ccc(C(F)(F)F)cc2)c2ccc(-c3cccc([C@H](O)CO)n3)cc2C1`, the results for the solubility kinetic in [1] and in data set [2] were 66 µM (≈ 31.2 µg/mL) and 1 µM (≈ 0.472 µg/mL), respectively. Moreover, testing at 1 µM in [5] gave an inhibition of 22.6%. The Tmax in data set [9] was 2.5 h. This compound also displayed a Cmax in data set [10] of 21 ng/mL. The same compound registered an exposure (AUC) in data set [11] of 133 ng·h/mL.
